Assay results as given in patent US9109048B2, “Inhibition of tumor growth” (priority 1998, dated 2015).
≈ marks a conversion by molar mass, not a printed value. Where “and” joins values, the source holds several entries; their conditions need not be identical. Equal values may be shown once. Read-outs that look alike come from different tables or passages of the source. Values belong to the molecule of their own block, whether it stands above or below them. Square brackets hold non-standard residues; d marks the D form. Ends that are not written are not given here. Peptide text beside a SMILES is read from it. * marks the point of attachment. Trp(2-Pmc) = Cc1c(C)c(S(=O)(=O)c2[nH]c3ccccc3c2C[C@H](N)C(=O)O)c(C)c2c1OC(C)(C)CC2; Bip = N[C@@H](Cc1ccc(-c2ccccc2)cc1)C(=O)O; Fmoc = O=C(OCC1c2ccccc2-c2ccccc21)*; Acm = CC(=O)NC*

Legend:
[1] = system: Meth A cells (murine sarcoma cell line); assay: Cytotoxicity on Meth A cells, MTT method; settings: for Meth A IC 50: 4 h
Procedure: Peptide solutions (0.1 ml) were added and the plates incubated at 37° C. for 30 minutes, 4 hours or 24 hours. The cytotoxicity was measured using the MTT method (Mosmann et al., J. Immunol. (1986) 136, 2348-2357).
Cells in the growth phase were harvested and washed in fresh medium and injected subcutaneously into the abdominal region of the mice.
The cytotoxic effect of the peptides on different murine and human tumor cells were measured using the MTT method (Mosmann et al., J. Immunol. (1986) 136, 2348-2357).
MTT is a soluble tetrazolium salt yielding a yellow solution when prepared in media or salt solutions lacking phenol red. Dissolved MTT is converted to an insoluble purple formazan by cleavage of the tetrazolium ring by dehydrogenase enzymes. This water insoluble formazan can be solubilized using isopropanol or other solvents and the dissolved material is measured spectrophotometrically. The absorbance was measured as a function of concentration of converted dye.
Cells were maintained in […] medium containing 10% FBS, 1% L-glutamine and 0.1% penicillin and streptomycin. Cells to be used in the assay were grown to confluency, trypsinated and split to single cell suspension, counted and centrifuged at 1500 rpm for 10 min. […][…] of cell suspension was transferred to each well on a 96-well microtiter plate. The cells were stimulated by adding […] of various concentrations of peptides diluted with assay medium to each well. The final concentrations of peptide were for example: 5, 10, 20, 40, 60, 80, 100, and 200 mg/ml. […] As a negative control only medium was added to the cells, and as a positive control (100% killing) 1% triton X-100 was added. Following an incubation period of 4 h., 20 ml MTT dissolved in PBS at a concentration of 5 mg/ml was added to each well, and the plate was incubated further for 2 h. 130 ml of the supernatant were then removed and […] acid alcohol (0.04-0.1 N HCl in isopropanol) added to each well to dissolve the dark blue crystals. The plate was placed on a shaker for 1 h and read spectrophotometrically at 590 nm in a microtiterplate reader using the Softmaxâ program.

[2] = system: MRSA (methicillin resistant S. aureus); type: cell-based
Procedure: (§1) The bacterial strains used were: Escherichia coli ATCC 25922 and Staphylococcus aureus ATCC 25923. All strains were stored at −70° C. The bacteria were grown in 2% Bacto Peptone water (Difco 1807-17-4). All tests were performed with bacteria in mid-logarithmic growth phase. Determination of the minimum inhibitory concentration (MIC) of the peptides for bacterial strains were performed in 1% Bacto Peptone water. A standard microdilution technique with an inoculum of 2×10^6 CFU/ml was used. All assays were performed in triplets. Since the peptides are positively charged and therefore could adhere to the plastic wells, we controlled the actual concentration of the peptides in the solution by HPLC. There was no difference between the concentration of the peptides before or after adding the solution to the plastic wells.
Table 15 below gives the antibacterial activity and toxicity data for some preferred peptides of the invention. MRSA is methicillin resistant S. aureus and MRSE is methicilin resistant S. epidermidis.

[3] = system: Staphylococcus aureus ATCC 25923; assay: MIC (minimum inhibitory concentration) test, microdilution; type: cell-based
Procedure: as §1

[4] = system: Escherichia coli ATCC 25922; assay: as above; type: cell-based
Procedure: as §1

[5] = Table 7, in µg/mL (unit assumed)

Molecule: CSCC[C@H](NC(=O)[C@H](CCCNC(=N)N)NC(=O)[C@H](C)NC(=O)[C@H](CCC(N)=O)NC(=O)[C@H](Cc1c(S(=O)(=O)c2c(C)c(C)c3c(c2C)CCC(C)(C)O3)[nH]c2ccccc12)NC(=O)[C@H](CCCNC(=N)N)NC(=O)[C@H](CCCNC(=N)N)NC(=O)[C@H](CSCNC(C)=O)NC(=O)[C@H](CCCCN)NC(=O)[C@H](Cc1ccccc1)NC(=O)OCC1c2ccccc2-c2ccccc21)C(=O)N[C@@H](CCCCN)C(=O)N[C@@H](CCCCN)C(=O)N[C@@H](CC(C)C)C(=O)NCC(=O)N[C@@H](C)C(=O)O [LFB A8 FMOC PMC] (Fmoc-FKC(Acm)RR[Trp(2-Pmc)]QARMKKLGA-OH)
concentration effective in killing Meth A cells ([1]; 4 hours incubation): 50 µg/mL | concentration effective in killing Meth A cells ([1]; ½ hour incubation): higher than 100 μg/ml

Molecule: CSCC[C@H](NC(=O)[C@H](CCCNC(=N)N)NC(=O)[C@H](C)NC(=O)[C@H](CCC(N)=O)NC(=O)[C@H](Cc1c[nH]c2ccccc12)NC(=O)[C@H](CCCNC(=N)N)NC(=O)[C@H](CCCNC(=N)N)NC(=O)[C@H](CSCNC(C)=O)NC(=O)[C@H](CCCCN)NC(=O)[C@H](Cc1ccccc1)NC(=O)OCC1c2ccccc2-c2ccccc21)C(=O)N[C@@H](CCCCN)C(=O)N[C@@H](CCCCN)C(=O)N[C@@H](CC(C)C)C(=O)NCC(=O)N[C@@H](C)C(=O)O [LFB A8 FMOC] (Fmoc-FKC(Acm)RRWQARMKKLGA-OH)
concentration effective in killing Meth A cells ([1]; 4 hours incubation): 250 µg/mL | concentration effective in killing Meth A cells ([1]; ½ hour incubation): 250 µg/mL

Molecule: CSCC[C@H](NC(=O)[C@H](CCCNC(=N)N)NC(=O)[C@H](Cc1c[nH]c2ccccc12)NC(=O)[C@H](CCC(N)=O)NC(=O)[C@H](Cc1c[nH]c2ccccc12)NC(=O)[C@H](CCCNC(=N)N)NC(=O)[C@H](CCCNC(=N)N)NC(=O)[C@H](Cc1ccc(-c2ccccc2)cc1)NC(=O)[C@H](CCCCN)NC(=O)[C@@H](N)Cc1ccccc1)C(=O)N[C@@H](CCCCN)C(=O)N[C@@H](CCCCN)C(=O)N[C@@H](CC(C)C)C(=O)NCC(=O)N[C@@H](C)C(=O)O [LFB Bip3] (H-FK[Bip]RRWQWRMKKLGA-OH; N-terminus assumed)
MIC MRSA ([2]; Table 15): 2.5 µg/mL (≈ 1.18 µM)

Molecule: CSCC[C@H](NC(=O)[C@H](CCCNC(=N)N)NC(=O)[C@H](Cc1ccc(-c2ccccc2)cc1)NC(=O)[C@H](CCC(N)=O)NC(=O)[C@H](Cc1c(S(=O)(=O)c2c(C)c(C)c3c(c2C)CCC(C)(C)O3)[nH]c2ccccc12)NC(=O)[C@H](CCCNC(=N)N)NC(=O)[C@H](CCCNC(=N)N)NC(=O)[C@H](CSCNC(C)=O)NC(=O)[C@H](CCCCN)NC(=O)[C@@H](N)Cc1ccccc1)C(=O)N[C@@H](CCCCN)C(=O)N[C@@H](CCCCN)C(=O)N[C@@H](CC(C)C)C(=O)NCC(=O)N[C@@H](C)C(=O)O [LFB Bip8 PMC]
MIC S. aureus ([3]; Table 9): 5 µg/mL (≈ 2.11 µM) | MIC S. aureus ([3]; Table 15): 2.5 μg/ml and 1.1 μM | MIC E. coli ([4]; Table 9): 25 µg/mL (≈ 10.6 µM) | MIC E. coli ([4]; Table 15): 15.0 μg/ml and 6.3 μM | MIC MRSA ([2]; Table 15): 2.5 µg/mL (≈ 1.06 µM)

Now from value to molecule, other results behind:

MIC S. aureus ([3]; Table 15): 3.0 µg/mL (≈ 1.4 µM) | MIC E. coli ([4]; Table 15): ≧5.8 μM | MIC MRSA ([2]; Table 15): 2.5 µg/mL (≈ 1.17 µM)
Molecule: CSCC[C@H](NC(=O)[C@H](CCCNC(=N)N)NC(=O)[C@H](Cc1ccc(-c2ccccc2)cc1)NC(=O)[C@H](CCC(N)=O)NC(=O)[C@H](Cc1ccc(-c2ccccc2)cc1)NC(=O)[C@H](CCCNC(=N)N)NC(=O)[C@H](CCCNC(=N)N)NC(=O)[C@H](CSCNC(C)=O)NC(=O)[C@H](CCCCN)NC(=O)[C@@H](N)Cc1ccccc1)C(=O)N[C@@H](CCCCN)C(=O)N[C@@H](CCCCN)C(=O)N[C@@H](CC(C)C)C(=O)NCC(=O)N[C@@H](C)C(=O)O [LFB Bip6,8]

MIC S. aureus ([3]; Table 16): 5 µg/mL (≈ 2.96 µM) | MIC E. coli ([4]; Table 16, peptides with D-amino acids): 7.5 µg/mL (≈ 4.43 µM) | MIC MRSA ([2]; Table 16): 2.5 µg/mL (≈ 1.48 µM)
Molecule: C[C@@H](NC(=O)[C@H](Cc1c[nH]c2ccccc12)NC(=O)[C@H](CCCNC(=N)N)NC(=O)[C@H](Cc1c[nH]c2ccccc12)NC(=O)[C@@H](C)NC(=O)[C@@H](CCCNC(=N)N)NC(=O)[C@H](N)Cc1ccc(O)cc1)C(=O)N[C@@H](Cc1c[nH]c2ccccc12)C(=O)N[C@@H](CCCNC(=N)N)C(=O)N[C@@H](Cc1c[nH]c2ccccc12)C(=O)N[C@@H](CCCNC(=N)N)C(N)=O [SEQ ID NO: 34, tyr-arg-ala-TRP-ARG-TRP-ala-TRP-ARG-TRP-ARG-CONH2] (H-[dY][dR][dA]WRW[dA]WRWR-NH2; N-terminus assumed)

MIC S. aureus ([3]; ATCC 25923): 10 µg/mL | MIC S. aureus [3, 5]: 5-10 | MIC E. coli ([4]; ATCC 25922): 7.5 µg/mL | MIC E. coli [4, 5]: 5-10
Molecule: GIGKFLHSAKKFGKAFVGWIMNS [Mag2 W19]
Meth A IC 50 [1]: 9 µg/mL

MIC S. aureus ([3]; ATCC 25923): 10 µg/mL | MIC E. coli ([4]; ATCC 25922): 15 µg/mL
Molecule: GIGKFWKKARKWGRWFWRILKKG [Tosmag W6,12,15,17]
Meth A IC 50 [1]: 23 µg/mL

MIC S. aureus ([3]; ATCC 25923): >50 µg/mL | MIC E. coli ([4]; ATCC 25922): >50 µg/mL
Molecule: GIGKWLKKWRKFWRAWVRIWKKG [Tosmag W5,9,13,16,20]
Meth A IC 50 [1]: 23 µg/mL
